Results as given in US20260293895A1, “HERBICIDAL DERIVATIVES” (SYNGENTA CROP PROTECTION AG, priority 2023, published 2026).

What was measured:
Format in all cases: in vivo
Setaria faberi (SETFA) [1] = assay: Pre-emergence herbicidal test, Setaria faberi (SETFA); settings: 250 g/ha, evaluated after 13 days, glasshouse
[2] = tested on: Echinochloa crus-galli (ECHCG); assay: Pre-emergence herbicidal test, Echinochloa crus-galli (ECHCG); settings: 250 g/ha, evaluated after 13 days, glasshouse
[3] = tested on: Amaranthus retoflexus (AMARE); assay: Post-emergence herbicidal test, Amaranthus retoflexus (AMARE); settings: 250 g/ha, sprayed after 8 days cultivation, evaluated after 13 days, glasshouse
Description: (§1) Seeds of a variety of test species are sown in standard soil in pots (Setaria faberi (SETFA), Echinochloa crus-galli (ECHCG), Amaranthus palmeri (AMAPA), Zea mays (ZEAMX), Amaranthus retoflexus (AMARE),). After 8 days cultivation under controlled conditions in a glasshouse (at 24° C./16° C., day/night; 14 hours light; 65% humidity), the plants are sprayed with an aqueous spray solution derived from the formulation of the technical active ingredient in acetone/water (50:50) solution containing 0.5% Tween 20 (polyoxyethelyene sorbitan monolaurate, CAS RN 9005-64-5). Compounds are applied at 250 g/ha unless otherwise stated. The test plants are then grown in a glasshouse under controlled conditions in a glasshouse (at 24° C./16° C., day/night; 14 hours light; 65% humidity) and watered twice daily. After 13 days the test is evaluated for the percentage damage caused to the plant. The biological activities are shown in the following table on a five-point scale (5=81-100%; 4=61-80%; 3=41-60%; 2=21-40%; 1=1-20%; 0=no activity; -=not tested).

Zea mays (ZEAMX) [4] = assay: Pre-emergence test, Zea mays (ZEAMX); settings: 250 g/ha, evaluated after 13 days, glasshouse, crop
[5] = tested on: Amaranthus palmeri (AMAPA); assay: Pre-emergence herbicidal test, Amaranthus palmeri (AMAPA); settings: 250 g/ha, evaluated after 13 days, glasshouse
[6] = tested on: Amaranthus retoflexus (AMARE); assay: Pre-emergence herbicidal test, Amaranthus retoflexus (AMARE); settings: 250 g/ha, evaluated after 13 days, glasshouse
[7] = tested on: Echinochloa crus-galli (ECHCG); assay: Post-emergence herbicidal test, Echinochloa crus-galli (ECHCG); settings: 250 g/ha, sprayed after 8 days cultivation, evaluated after 13 days, glasshouse
Description: as §1

[8] = tested on: Amaranthus palmeri (AMAPA); assay: Post-emergence herbicidal test, Amaranthus palmeri (AMAPA); settings: 250 g/ha, sprayed after 8 days cultivation, evaluated after 13 days, glasshouse
Description: as §1

Zea mays (ZEAMX) [9] = assay: Post-emergence test, Zea mays (ZEAMX); parameters: key: 5: 81-100%; 4: 61-80%; 3: 41-60%; 21-40%; 1-20%; 0: no activity; -: not tested; settings: 250 g/ha, sprayed after 8 days cultivation, evaluated after 13 days, glasshouse, crop
Description: as §1

Setaria faberi (SETFA) [10] = assay: Post-emergence herbicidal test, Setaria faberi (SETFA); settings: 250 g/ha, sprayed after 8 days cultivation, evaluated after 13 days, glasshouse
Description: as §1

CCn1c(Cl)cc(=O)c(C(=O)O)c1-c1ccc(Cl)c(Cl)c1 [Compound 2, 6-chloro-2-(3,4-dichlorophenyl)-1-ethyl-4-oxo-pyridine-3-carboxylic acid]
percentage damage caused to the plant, SETFA (Setaria faberi (SETFA) [1]): 5 (81-100%) | percentage damage caused to the plant, ECHCG [2]: 3 (41-60%) | percentage damage caused to the plant, AMARE [3]: 1 (1-20%) | percentage damage caused to the plant, ZEAMX (Zea mays (ZEAMX) [4]): 1 (1-20%) | percentage damage caused to the plant, AMAPA [5]: 2 (21-40%) | percentage damage caused to the plant, AMARE [6]: 3 (41-60%) | percentage damage caused to the plant, ECHCG [7]: 3 (41-60%) | percentage damage caused to the plant, AMAPA [8]: 1 (1-20%) | percentage damage caused to the plant, ZEAMX (Zea mays (ZEAMX) [9]): 0 | percentage damage caused to the plant, SETFA (Setaria faberi (SETFA) [10]): 4 (61-80%)
